Laboratory results published in PubChem BioAssay AID720632 (Broad Institute, 2013).
Calls of active or inactive are those of the source. How the calls were made is not given here.

Biological target: Caspase-6 (Homo sapiens) (UniProt P55212)
Experiment: human caspase-6 inhibitors, dose response, biochemical, VEID-R110 fluorescence, cherry-pick (AID 720632)
Conditions: caspase-6, VEID-R110 fluorogenic substrate

Chain of Caspase-6 (Homo sapiens) (P55212 24-179 limits assumed): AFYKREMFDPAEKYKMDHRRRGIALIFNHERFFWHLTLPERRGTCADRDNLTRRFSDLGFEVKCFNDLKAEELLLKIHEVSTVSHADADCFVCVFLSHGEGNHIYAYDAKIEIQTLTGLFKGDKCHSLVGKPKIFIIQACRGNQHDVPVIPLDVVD
Chain of Caspase-6 (Homo sapiens) (P55212 194-293 limits assumed): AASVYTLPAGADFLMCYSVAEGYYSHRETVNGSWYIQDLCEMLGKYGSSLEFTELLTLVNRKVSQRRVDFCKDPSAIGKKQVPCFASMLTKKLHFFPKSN

Cc1nc2ccc(NC(=O)CCC3CCCC3)cc2s1
activity change, negative = inhibition (at 26 µM (top of the series)): inactive

C=CCNC(=O)COc1ccccc1C#N
activity change, negative = inhibition (at 26 µM (top of the series)): inactive

CCCC(=O)Nc1ccc2c(c1)OC[C@H](C)NC[C@@H](C)[C@@H](OC)CN(C)C2=O
activity change, negative = inhibition (at 26 µM (top of the series)): inactive

COc1ccccc1CNC(=O)COC(=O)c1ccc([N+](=O)[O-])o1
activity change, negative = inhibition (at 26 µM (top of the series)): inactive

N[C@@H](Cc1cc(I)c(O)c(I)c1)C(=O)O
activity change, negative = inhibition (at 26 µM (top of the series)): inactive

CCCN1C[C@H](C)[C@@H](OC)CN(C)C(=O)c2ccc(NC(=O)CC)cc2OC[C@H]1C
activity change, negative = inhibition (at 26 µM (top of the series)): inactive

COc1cc(N)c2ncccc2c1Cl
activity change, negative = inhibition (at 26 µM (top of the series)): inactive

CC(C)N=C(Nc1cccnc1)c1ccccc1
activity change, negative = inhibition (at 26 µM (top of the series)): inactive

COc1ccc(S(=O)(=O)N2CCOCC2)cc1C(=O)NCC(c1ccccc1)c1ccccc1
activity change, negative = inhibition (at 26 µM (top of the series)): inactive

COc1ccc(-n2c(NNC(C)=O)nc3sc4c(c3c2=O)CCCC4)cc1
activity change, negative = inhibition (at 26 µM (top of the series)): inactive

Cc1ccc(S(=O)(=O)n2c(C)nc3ccccc32)cc1
activity change, negative = inhibition (at 26 µM (top of the series)): inactive

OC(c1ccc(F)cc1)c1ncc(-c2ccccc2F)[nH]1 (stereo not given)
activity change, negative = inhibition (at 26 µM (top of the series)): inactive

CCC(=O)Nc1ccc2c(c1)OC[C@@H](C)NC[C@@H](C)[C@@H](OC)CN(C)C2=O
activity change, negative = inhibition (at 26 µM (top of the series)): inactive

O=C(O)c1ccc(Cn2cc(/C=C\[N+](=O)[O-])c3ccccc32)o1
activity change, negative = inhibition (at 26 µM (top of the series)): inactive

Oc1ccc(/C=N/n2c(-c3ccccc3)n[nH]c2=S)cc1Br
activity change, negative = inhibition (at 26 µM (top of the series)): inactive

CC(CNC(=O)c1ccc(OC2CCN(Cc3ccccn3)CC2)cc1)c1ccccc1 (stereo not given)
activity change, negative = inhibition (at 26 µM (top of the series)): inactive

OC[C@H]1[C@H](c2ccc(-c3ccccc3F)cc2)[C@H]2CN(Cc3cccnc3)CCCCN21
activity change, negative = inhibition (at 26 µM (top of the series)): inactive

O=S(=O)(c1cccc2cccnc12)N1CCN(c2ccc(F)cc2)CC1
activity change, negative = inhibition (at 26 µM (top of the series)): inactive

S=c1[nH]cc(-c2ccccc2)n1-c1cccc(Cl)c1
activity change, negative = inhibition (at 26 µM (top of the series)): inactive

Cc1ccc(C)c(N2N=C(C(=O)OCc3nnc(-c4ccccc4Br)o3)CCC2=O)c1
activity change, negative = inhibition (at 26 µM (top of the series)): inactive

CO[C@H]1CN(C)C(=O)c2ccc(NC(=O)C3CC3)cc2OC[C@H](C)N(Cc2ccccc2)C[C@H]1C
activity change, negative = inhibition (at 26 µM (top of the series)): inactive

O=C(Cc1ccccn1)NCC[C@@H]1CC[C@@H](NC(=O)c2ccccc2F)[C@H](CO)O1
activity change, negative = inhibition (at 26 µM (top of the series)): inactive

O=C(COC(=O)c1ccc([N+](=O)[O-])o1)Nc1ccc(F)cc1
activity change, negative = inhibition (at 26 µM (top of the series)): inactive

O=C(NNS(=O)(=O)c1ccc(F)cc1)c1ccccc1F
activity change, negative = inhibition (at 26 µM (top of the series)): inactive

COc1cc(CN2CCc3ccccc3C2)cc([N+](=O)[O-])c1O
activity change, negative = inhibition (at 26 µM (top of the series)): inactive

COc1ccc(CCNC(=O)c2cc3cccc(OC)c3oc2=O)cc1OC
activity change, negative = inhibition (at 26 µM (top of the series)): inactive

CC(=O)Nc1ccc(NC(=O)COC(=O)c2ccc([N+](=O)[O-])o2)cc1
activity change, negative = inhibition (at 26 µM (top of the series)): inactive

O=C(CNc1cccc(S(=O)(=O)N2CCCC2)c1)Nc1cccc(Br)c1
activity change, negative = inhibition (at 26 µM (top of the series)): inactive

CO[C@H]1CN(C)C(=O)c2ccc(NC(=O)C3CC3)cc2OC[C@@H](C)N(Cc2ccccc2)C[C@@H]1C
activity change, negative = inhibition (at 26 µM (top of the series)): inactive

CO[C@H]1CN(C)C(=O)c2cc(NC(=O)C3CC3)ccc2OC[C@H](C)N(C(=O)c2ccccc2)C[C@H]1C
activity change, negative = inhibition (at 26 µM (top of the series)): inactive

O=C(COC(=O)c1ccc([N+](=O)[O-])o1)Nc1ccc2c(c1)OC(F)(F)O2
activity change, negative = inhibition (at 26 µM (top of the series)): inactive

O=C(CCCn1c(=S)[nH]c2cc3c(cc2c1=O)OCO3)N1CCN(c2ccc(Cl)cc2)CC1
activity change, negative = inhibition (at 26 µM (top of the series)): inactive

Cc1nc2ccccc2n1CCOc1ccccc1
activity change, negative = inhibition (at 26 µM (top of the series)): inactive

C[C@@H](NC(=O)C[C@@H]1CC[C@@H](NC(=O)CN2CCOCC2)[C@@H](CO)O1)c1ccccc1
activity change, negative = inhibition (at 26 µM (top of the series)): inactive

CCC(=O)Nc1ccc2c(c1)OC[C@H](C)N(C(=O)C1CC1)C[C@@H](C)[C@@H](OC)CN(C)C2=O
activity change, negative = inhibition (at 26 µM (top of the series)): inactive

Cc1onc(NC(=O)NC(=O)c2c(F)cccc2Cl)c1Br
activity change, negative = inhibition (at 26 µM (top of the series)): inactive

CCCC(=O)Nc1ccc2c(c1)OC[C@H](C)NC[C@H](C)[C@H](OC)CN(C)C2=O
activity change, negative = inhibition (at 26 µM (top of the series)): inactive

C=CCOc1cccn2c(N(C=O)Cc3ccccc3)c(CC)nc12
activity change, negative = inhibition (at 26 µM (top of the series)): inactive

CO[C@H]1CN(C)C(=O)c2ccc(NC(=O)C3CC3)cc2OC[C@@H](C)N(Cc2cccc(F)c2)C[C@H]1C
activity change, negative = inhibition (at 26 µM (top of the series)): inactive

N/C(Cc1cccc2ccccc12)=N\OC(=O)c1ccccc1F
activity change, negative = inhibition (at 26 µM (top of the series)): inactive

Cc1ccc(N2C(=O)Cc3ccccc3C2=O)cc1
activity change, negative = inhibition (at 26 µM (top of the series)): inactive

C#CCOc1ccc(CNC[C@H]2O[C@@H](n3ccc(N)nc3=O)[C@H](O)[C@@H]2O)cc1
activity change, negative = inhibition (at 26 µM (top of the series)): inactive

O=C(COc1ccc(S(=O)(=O)NC2CCCCC2)cc1Cl)NCc1ccc2c(c1)OCO2
activity change, negative = inhibition (at 26 µM (top of the series)): inactive

Cc1cc2c(NC(=O)Nc3ccc(F)cc3)cccc2nn1
activity change, negative = inhibition (at 26 µM (top of the series)): inactive

CCC(=O)N1CCC1(C)C(=O)Nc1cccc2cccnc12 (stereo not given)
activity change, negative = inhibition (at 26 µM (top of the series)): inactive

Cc1ccc2oc(C(=O)N(Cc3ccc(N(C)C)cc3)C3CCS(=O)(=O)C3)c(C)c2c1 (stereo not given)
activity change, negative = inhibition (at 26 µM (top of the series)): inactive

CCN(CC)c1c([N+](=O)[O-])c(=O)n(CC)c2ccccc12
activity change, negative = inhibition (at 26 µM (top of the series)): inactive

CCC(C)Nc1nc2c(C)cccn2c(=O)c1C=Nc1ccc(OC)cc1 (stereo not given)
activity change, negative = inhibition (at 26 µM (top of the series)): inactive

O=C(NC(=S)NNS(=O)(=O)c1ccccc1)c1ccccc1[N+](=O)[O-]
activity change, negative = inhibition (at 26 µM (top of the series)): inactive

COc1ccccc1CN(C)C(=O)CN1CCN(CC(=O)Nc2ccccc2Cl)CC1
activity change, negative = inhibition (at 26 µM (top of the series)): inactive

COc1cc2sc(C)nc2c2ccccc12
activity change, negative = inhibition (at 26 µM (top of the series)): inactive

CO[C@@H]1CN(C)C(=O)c2ccc(NC(=O)C3CC3)cc2OC[C@H](C)N(Cc2ccccc2)C[C@@H]1C
activity change, negative = inhibition (at 26 µM (top of the series)): inactive

COc1cc(-c2nnc(COC(=O)c3ccc([N+](=O)[O-])o3)o2)cc(OC)c1OC
activity change, negative = inhibition (at 26 µM (top of the series)): inactive

CN1CC2([N+](=O)[O-])CC=C(OCCO)C([N+](=O)[O-])(C1)C2 (stereo not given)
activity change, negative = inhibition (at 26 µM (top of the series)): inactive

CO[C@@H]1CN(C)C(=O)c2ccc(NC(=O)c3ccccc3)cc2OC[C@H](C)N(C(=O)C2CC2)C[C@H]1C
activity change, negative = inhibition (at 26 µM (top of the series)): inactive

CC(C)(C)c1ccc(C(=O)Nc2ccc(S(=O)(=O)Nc3cnc4ccccc4n3)cc2)cc1
activity change, negative = inhibition (at 26 µM (top of the series)): inactive

CC(C)(C)NC(=O)C1CCN(S(=O)(=O)c2cccc3nsnc23)CC1
activity change, negative = inhibition (at 26 µM (top of the series)): inactive

CCOc1ccc(S(=O)(=O)NCCC(=O)NCC2(N3CCCCC3)CCCCC2)cc1
activity change, negative = inhibition (at 26 µM (top of the series)): inactive

CC(=O)Nc1ccc(C=NNc2ccc([N+](=O)[O-])cc2S(=O)(=O)Nc2ccccc2C(=O)O)cc1
activity change, negative = inhibition (at 26 µM (top of the series)): inactive

CCC1=NN(C(=O)c2ccc(Cl)cc2)C(O)(c2ccc(C)cc2)C1 (stereo not given)
activity change, negative = inhibition (at 26 µM (top of the series)): inactive

O=C(c1cccc(S(=O)(=O)N2CCCCCC2)c1)N1CCN(c2ccccc2F)CC1
activity change, negative = inhibition (at 26 µM (top of the series)): inactive

CCOC(=O)c1c(NC(=O)C2CC(Cl)=CCC2C(=O)O)sc2c1CC(C)(C)OC2 (stereo not given)
activity change, negative = inhibition (at 26 µM (top of the series)): inactive

C[CH2][Hg][S]c1ccccc1C(=O)O
AC50: 6.91 µM

O=C(Nc1cccc(F)c1)c1coc(=O)c(Br)c1
activity change, negative = inhibition (at 26 µM (top of the series)): inactive

COc1cccc(CNC(=O)CCn2ccc3cc(S(=O)(=O)N4CCCC4)ccc32)c1
activity change, negative = inhibition (at 26 µM (top of the series)): inactive

CCC(=O)Nc1c(C#N)c2nc3ccccc3nc2n1-c1ccc(C)cc1
activity change, negative = inhibition (at 26 µM (top of the series)): inactive

CO[C@H]1CN(C)C(=O)c2ccc(NC(=O)C3CC3)cc2OC[C@@H](C)N(CC2CCOCC2)C[C@@H]1C
activity change, negative = inhibition (at 26 µM (top of the series)): inactive

CN(C)CCCN(C(=O)c1ccc([N+](=O)[O-])s1)c1nc2cc3c(cc2s1)OCCO3
activity change, negative = inhibition (at 8 µM (top of the series)): inactive

CN1CCN(c2cc(CNC[C@H]3O[C@@H](n4cnc5c(=O)[nH]c(N)nc54)[C@H](O)[C@@H]3O)ccc2F)CC1
activity change, negative = inhibition (at 26 µM (top of the series)): inactive

CCC(=O)Nc1ccc2c(c1)OC[C@H](C)N(C(=O)CC)C[C@@H](C)[C@@H](OC)CN(C)C2=O
activity change, negative = inhibition (at 26 µM (top of the series)): inactive

CO[C@H]1CN(C)C(=O)c2ccc(NC(=O)c3ccccc3)cc2OC[C@@H](C)N(C(=O)C2CC2)C[C@@H]1C
activity change, negative = inhibition (at 26 µM (top of the series)): inactive

O=C(CN1C(=O)NC2(CCc3ccccc32)C1=O)Nc1c(Cl)cccc1Cl (stereo not given)
activity change, negative = inhibition (at 26 µM (top of the series)): inactive

CCN(CC)c1ccc2c(cc1=O)[C@@H](NC)CCc1cc(OC)c(OC)c(OC)c1-2
activity change, negative = inhibition (at 26 µM (top of the series)): inactive

CCOC(=O)C1CCCN(S(=O)(=O)c2nc3nc(C)cc(C)n3n2)C1 (stereo not given)
activity change, negative = inhibition (at 26 µM (top of the series)): inactive

COCC(=O)Nc1ccc2c(c1)OC[C@H](C)N(CC1CC1)C[C@@H](C)[C@H](OC)CN(C)C2=O
activity change, negative = inhibition (at 23.5 µM (top of the series)): inactive

O=C1c2ccccc2[C@@H]2C[C@@H](O)[C@H](Nc3cccc4ccccc34)CCN12
activity change, negative = inhibition (at 26 µM (top of the series)): inactive

c1ccc(CCNc2ccc3ncc(-c4cccc5ccccc45)n3n2)nc1
activity change, negative = inhibition (at 26 µM (top of the series)): inactive

CN1CCN(C(=O)c2cc(Cl)cc(Cl)c2)CC1
activity change, negative = inhibition (at 26 µM (top of the series)): inactive

O=C(Nc1ccc(F)cc1)N1CCN(C(=O)C2CCCO2)CC1 (stereo not given)
activity change, negative = inhibition (at 26 µM (top of the series)): inactive

COc1ccccc1N(CC(=O)NCCSCc1ccccc1Cl)S(C)(=O)=O
activity change, negative = inhibition (at 26 µM (top of the series)): inactive

O=C(CNC(=O)Cc1ccccc1)NCc1cccs1
activity change, negative = inhibition (at 26 µM (top of the series)): inactive

Cc1ccc(C(=O)O)cc1NC(=O)c1ccc2c(c1)C(=O)N(c1ccc([N+](=O)[O-])cc1)C2=O
activity change, negative = inhibition (at 26 µM (top of the series)): inactive

Cc1ccc(NC(=O)Nc2nnc(-c3ccccc3)o2)cc1
activity change, negative = inhibition (at 26 µM (top of the series)): inactive

O=C(OCc1ccccc1)N1CCCC2CC1c1ccccc12 (stereo not given)
activity change, negative = inhibition (at 26 µM (top of the series)): inactive

COc1ccc(N2C(=O)Cc3ccccc3C2=O)cc1
activity change, negative = inhibition (at 26 µM (top of the series)): inactive
